Measurements from ChEMBL document CHEMBL5376015, “Kinase inhibitor macrocycles: a perspective on limiting conformational flexibility when targeting the kinome with small molecules” (RSC Med Chem, 2024).
In brackets after ≈: the same amount, converted by molar mass.

Assays:
[1] = target: T1, Tyrosine-protein kinase JAK3 (Homo sapiens, UniProt P52333); assay: Inhibition of human recombinant JAK3
T1 sequence (P52333 whole entry): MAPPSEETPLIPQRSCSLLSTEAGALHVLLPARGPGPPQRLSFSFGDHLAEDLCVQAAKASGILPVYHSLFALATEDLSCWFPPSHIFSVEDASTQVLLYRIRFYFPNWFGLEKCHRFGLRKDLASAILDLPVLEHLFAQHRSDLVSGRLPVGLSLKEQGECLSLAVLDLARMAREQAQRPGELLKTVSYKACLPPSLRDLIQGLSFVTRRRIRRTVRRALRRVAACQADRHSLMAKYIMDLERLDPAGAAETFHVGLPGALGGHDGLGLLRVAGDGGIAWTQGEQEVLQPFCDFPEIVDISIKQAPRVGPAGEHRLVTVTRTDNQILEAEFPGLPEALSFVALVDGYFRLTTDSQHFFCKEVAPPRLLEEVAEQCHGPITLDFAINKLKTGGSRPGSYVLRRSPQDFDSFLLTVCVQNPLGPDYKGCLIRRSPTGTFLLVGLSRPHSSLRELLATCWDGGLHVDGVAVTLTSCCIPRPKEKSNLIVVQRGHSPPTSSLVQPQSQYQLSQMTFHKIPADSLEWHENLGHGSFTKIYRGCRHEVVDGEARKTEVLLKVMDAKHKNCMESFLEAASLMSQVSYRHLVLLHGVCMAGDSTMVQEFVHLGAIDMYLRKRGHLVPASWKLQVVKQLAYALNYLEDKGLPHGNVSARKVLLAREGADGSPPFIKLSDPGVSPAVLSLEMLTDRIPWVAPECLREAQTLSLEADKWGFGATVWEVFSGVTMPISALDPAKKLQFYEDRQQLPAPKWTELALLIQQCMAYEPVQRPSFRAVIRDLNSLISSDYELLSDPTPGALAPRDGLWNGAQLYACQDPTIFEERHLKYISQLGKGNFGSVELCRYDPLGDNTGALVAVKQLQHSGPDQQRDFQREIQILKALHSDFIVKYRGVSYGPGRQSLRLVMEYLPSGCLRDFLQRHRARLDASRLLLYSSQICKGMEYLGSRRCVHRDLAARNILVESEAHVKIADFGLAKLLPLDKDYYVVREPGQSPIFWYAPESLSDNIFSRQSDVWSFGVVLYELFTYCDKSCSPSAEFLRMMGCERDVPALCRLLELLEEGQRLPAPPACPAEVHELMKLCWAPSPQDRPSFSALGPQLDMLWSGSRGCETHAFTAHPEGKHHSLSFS

[2] = target: Cyclin-dependent kinase 2 (Homo sapiens, UniProt P24941); assay: Inhibition of human recombinant CDK2 by Kinomescan method
[3] = target: Non-receptor tyrosine-protein kinase TYK2 (Homo sapiens, UniProt P29597); assay: Inhibition of human recombinant TYK2
Sequence of Non-receptor tyrosine-protein kinase TYK2 (P29597 whole entry): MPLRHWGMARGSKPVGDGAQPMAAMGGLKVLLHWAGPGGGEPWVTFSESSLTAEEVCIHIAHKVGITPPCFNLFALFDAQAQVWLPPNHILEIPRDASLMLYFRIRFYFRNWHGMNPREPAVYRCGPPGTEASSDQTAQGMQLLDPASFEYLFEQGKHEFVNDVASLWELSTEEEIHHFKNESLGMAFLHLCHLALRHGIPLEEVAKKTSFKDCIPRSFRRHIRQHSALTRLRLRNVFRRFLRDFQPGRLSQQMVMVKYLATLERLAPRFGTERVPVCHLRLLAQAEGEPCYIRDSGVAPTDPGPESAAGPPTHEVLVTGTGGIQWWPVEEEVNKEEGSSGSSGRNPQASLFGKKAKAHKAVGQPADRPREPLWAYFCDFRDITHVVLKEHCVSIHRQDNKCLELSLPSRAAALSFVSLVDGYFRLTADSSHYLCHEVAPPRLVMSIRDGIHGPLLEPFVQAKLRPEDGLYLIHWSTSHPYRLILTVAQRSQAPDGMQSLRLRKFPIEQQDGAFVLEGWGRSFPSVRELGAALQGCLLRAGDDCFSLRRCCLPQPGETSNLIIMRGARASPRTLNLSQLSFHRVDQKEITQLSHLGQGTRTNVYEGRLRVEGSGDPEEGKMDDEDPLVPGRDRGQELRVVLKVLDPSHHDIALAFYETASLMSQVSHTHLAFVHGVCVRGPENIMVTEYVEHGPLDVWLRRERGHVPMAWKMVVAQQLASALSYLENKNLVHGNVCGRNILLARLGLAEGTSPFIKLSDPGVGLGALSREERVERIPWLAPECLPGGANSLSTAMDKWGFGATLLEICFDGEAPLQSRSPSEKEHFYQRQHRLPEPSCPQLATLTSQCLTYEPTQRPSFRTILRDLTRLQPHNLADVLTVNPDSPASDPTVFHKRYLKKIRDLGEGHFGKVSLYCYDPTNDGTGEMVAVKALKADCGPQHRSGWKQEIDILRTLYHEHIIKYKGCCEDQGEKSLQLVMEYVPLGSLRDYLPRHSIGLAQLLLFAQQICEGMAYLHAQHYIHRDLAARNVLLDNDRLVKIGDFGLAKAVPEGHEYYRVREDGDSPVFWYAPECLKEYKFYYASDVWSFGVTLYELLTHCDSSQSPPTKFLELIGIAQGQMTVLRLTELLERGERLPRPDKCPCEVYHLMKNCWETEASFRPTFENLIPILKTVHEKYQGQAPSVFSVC

BaF3 [4] = assay: Growth inhibition of mouse BaF3 cells harboring JAK2 V617F mutant assessed as reduction in cell viability incubated for 72 hrs by MTT assay; type: functional
[5] = target: Tyrosine-protein kinase JAK1 (Homo sapiens, UniProt P23458)
Sequence of Tyrosine-protein kinase JAK1 (P23458 whole entry): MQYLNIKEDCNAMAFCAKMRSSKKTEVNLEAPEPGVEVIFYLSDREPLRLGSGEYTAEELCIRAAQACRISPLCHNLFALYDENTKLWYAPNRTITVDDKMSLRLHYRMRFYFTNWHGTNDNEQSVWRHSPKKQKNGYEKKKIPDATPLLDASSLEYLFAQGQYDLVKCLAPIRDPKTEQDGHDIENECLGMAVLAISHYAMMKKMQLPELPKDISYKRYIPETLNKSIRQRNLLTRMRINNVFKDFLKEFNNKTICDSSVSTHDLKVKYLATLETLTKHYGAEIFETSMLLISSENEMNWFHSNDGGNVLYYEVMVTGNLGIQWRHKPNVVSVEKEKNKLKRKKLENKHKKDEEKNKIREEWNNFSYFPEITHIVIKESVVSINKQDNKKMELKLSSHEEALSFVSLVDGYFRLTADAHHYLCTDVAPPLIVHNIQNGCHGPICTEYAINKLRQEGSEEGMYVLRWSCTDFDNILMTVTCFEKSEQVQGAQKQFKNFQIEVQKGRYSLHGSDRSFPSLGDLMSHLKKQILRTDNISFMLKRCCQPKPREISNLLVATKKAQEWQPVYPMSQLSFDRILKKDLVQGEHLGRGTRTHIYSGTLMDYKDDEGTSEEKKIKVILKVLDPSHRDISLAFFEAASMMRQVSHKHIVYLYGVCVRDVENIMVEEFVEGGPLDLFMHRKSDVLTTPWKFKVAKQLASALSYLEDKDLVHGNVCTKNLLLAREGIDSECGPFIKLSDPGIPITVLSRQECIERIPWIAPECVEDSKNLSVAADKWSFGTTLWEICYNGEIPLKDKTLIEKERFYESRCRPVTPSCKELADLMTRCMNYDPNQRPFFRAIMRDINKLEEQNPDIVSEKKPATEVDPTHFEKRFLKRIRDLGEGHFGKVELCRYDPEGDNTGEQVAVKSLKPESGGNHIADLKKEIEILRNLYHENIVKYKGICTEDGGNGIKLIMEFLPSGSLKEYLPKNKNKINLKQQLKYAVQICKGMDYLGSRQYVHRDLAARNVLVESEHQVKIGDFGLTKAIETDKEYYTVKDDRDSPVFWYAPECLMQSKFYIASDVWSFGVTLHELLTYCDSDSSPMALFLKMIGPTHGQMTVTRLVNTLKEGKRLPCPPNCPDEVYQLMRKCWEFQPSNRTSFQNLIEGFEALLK
Description: Inhibition of human recombinant JAK1

[6] = target: Tyrosine-protein kinase JAK2 (Homo sapiens, UniProt O60674)
Sequence of Tyrosine-protein kinase JAK2 (O60674 whole entry): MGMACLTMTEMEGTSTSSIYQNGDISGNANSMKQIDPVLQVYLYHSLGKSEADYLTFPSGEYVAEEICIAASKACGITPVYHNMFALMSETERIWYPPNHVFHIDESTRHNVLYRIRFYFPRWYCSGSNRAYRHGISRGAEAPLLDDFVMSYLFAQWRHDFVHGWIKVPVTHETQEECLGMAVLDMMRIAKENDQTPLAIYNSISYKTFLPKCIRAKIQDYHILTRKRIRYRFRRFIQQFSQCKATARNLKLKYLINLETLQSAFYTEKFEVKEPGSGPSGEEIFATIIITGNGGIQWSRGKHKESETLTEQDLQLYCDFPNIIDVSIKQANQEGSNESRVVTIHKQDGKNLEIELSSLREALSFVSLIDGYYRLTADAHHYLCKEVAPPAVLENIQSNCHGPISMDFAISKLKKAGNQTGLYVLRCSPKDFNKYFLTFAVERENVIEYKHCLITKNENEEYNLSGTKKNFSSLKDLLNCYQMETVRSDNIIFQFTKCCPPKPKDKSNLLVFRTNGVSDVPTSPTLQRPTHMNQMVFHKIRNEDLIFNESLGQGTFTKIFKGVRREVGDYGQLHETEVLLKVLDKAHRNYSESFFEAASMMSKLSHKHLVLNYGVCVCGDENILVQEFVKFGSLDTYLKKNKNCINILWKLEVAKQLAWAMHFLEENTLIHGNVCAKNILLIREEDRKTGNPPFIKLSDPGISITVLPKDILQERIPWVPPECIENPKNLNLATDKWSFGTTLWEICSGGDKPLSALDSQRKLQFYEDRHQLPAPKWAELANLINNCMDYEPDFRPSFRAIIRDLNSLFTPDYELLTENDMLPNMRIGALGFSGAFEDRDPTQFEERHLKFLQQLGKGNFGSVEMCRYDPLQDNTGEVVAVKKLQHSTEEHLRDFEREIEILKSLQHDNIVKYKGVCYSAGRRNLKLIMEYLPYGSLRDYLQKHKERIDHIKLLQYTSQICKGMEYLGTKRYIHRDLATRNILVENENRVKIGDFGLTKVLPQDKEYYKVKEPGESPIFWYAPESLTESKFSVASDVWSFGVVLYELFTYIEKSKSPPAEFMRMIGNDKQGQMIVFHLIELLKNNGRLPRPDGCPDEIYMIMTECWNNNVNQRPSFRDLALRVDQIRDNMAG
Description: Inhibition of human recombinant JAK2

[7] = target: T2, Receptor-type tyrosine-protein kinase FLT3 (Homo sapiens, UniProt P36888)
T2 sequence (P36888 whole entry): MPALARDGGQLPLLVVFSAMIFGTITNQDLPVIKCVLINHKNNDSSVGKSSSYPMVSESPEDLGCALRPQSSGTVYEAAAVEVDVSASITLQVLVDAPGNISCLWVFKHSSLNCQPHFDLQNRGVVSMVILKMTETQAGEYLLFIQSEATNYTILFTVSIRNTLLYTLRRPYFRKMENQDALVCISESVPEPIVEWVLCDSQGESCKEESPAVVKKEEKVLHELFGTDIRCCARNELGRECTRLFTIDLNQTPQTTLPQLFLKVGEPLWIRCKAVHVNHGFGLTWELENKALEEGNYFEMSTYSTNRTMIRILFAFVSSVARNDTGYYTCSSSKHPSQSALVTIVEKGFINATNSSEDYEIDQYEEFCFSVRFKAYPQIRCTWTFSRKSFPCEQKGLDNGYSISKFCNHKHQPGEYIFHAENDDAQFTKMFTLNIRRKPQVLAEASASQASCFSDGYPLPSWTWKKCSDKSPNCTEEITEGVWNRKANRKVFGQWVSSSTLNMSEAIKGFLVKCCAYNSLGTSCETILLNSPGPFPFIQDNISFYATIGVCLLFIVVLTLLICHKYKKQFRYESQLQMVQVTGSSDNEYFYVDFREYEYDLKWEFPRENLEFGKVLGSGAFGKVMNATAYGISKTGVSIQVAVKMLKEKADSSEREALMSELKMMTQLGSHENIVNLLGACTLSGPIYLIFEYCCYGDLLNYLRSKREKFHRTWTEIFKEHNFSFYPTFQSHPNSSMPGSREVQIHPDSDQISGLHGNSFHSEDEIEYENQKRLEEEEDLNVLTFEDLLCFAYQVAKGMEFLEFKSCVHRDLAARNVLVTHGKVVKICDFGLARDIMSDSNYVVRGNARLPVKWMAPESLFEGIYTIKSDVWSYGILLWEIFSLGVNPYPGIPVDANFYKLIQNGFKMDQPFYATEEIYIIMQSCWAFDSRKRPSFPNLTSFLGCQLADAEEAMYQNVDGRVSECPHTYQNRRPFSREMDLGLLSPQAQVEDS
Description: Inhibition of recombinant FLT3 in human MV4-11 cells assessed as reduction in ERK phosphorylation by Western blotting analysis

Cytochrome P450 3A4 [8] = target: T3, Cytochrome P450 3A4 (Homo sapiens, UniProt P08684)
T3 sequence (P08684 whole entry): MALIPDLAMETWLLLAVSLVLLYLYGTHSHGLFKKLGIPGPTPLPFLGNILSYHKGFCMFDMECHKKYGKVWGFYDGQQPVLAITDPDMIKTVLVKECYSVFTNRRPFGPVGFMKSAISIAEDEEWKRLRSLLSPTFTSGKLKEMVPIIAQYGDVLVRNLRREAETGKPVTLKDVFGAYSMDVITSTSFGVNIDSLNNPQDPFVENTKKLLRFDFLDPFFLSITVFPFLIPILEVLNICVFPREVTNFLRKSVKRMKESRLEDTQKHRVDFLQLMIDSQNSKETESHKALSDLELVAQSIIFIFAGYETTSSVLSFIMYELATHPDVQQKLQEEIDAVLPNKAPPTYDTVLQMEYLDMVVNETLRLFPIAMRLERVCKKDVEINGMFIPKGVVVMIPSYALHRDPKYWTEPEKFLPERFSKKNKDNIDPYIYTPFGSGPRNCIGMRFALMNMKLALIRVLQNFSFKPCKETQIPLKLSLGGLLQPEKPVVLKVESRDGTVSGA
Description: Inhibition of CYP3A4 in human liver microsomes using testosterone as substrate by LC-MS/MS analysis

Cytochrome P450 2D6 [9] = target: T4, Cytochrome P450 2D6 (Homo sapiens, UniProt P10635)
T4 sequence (P10635 whole entry): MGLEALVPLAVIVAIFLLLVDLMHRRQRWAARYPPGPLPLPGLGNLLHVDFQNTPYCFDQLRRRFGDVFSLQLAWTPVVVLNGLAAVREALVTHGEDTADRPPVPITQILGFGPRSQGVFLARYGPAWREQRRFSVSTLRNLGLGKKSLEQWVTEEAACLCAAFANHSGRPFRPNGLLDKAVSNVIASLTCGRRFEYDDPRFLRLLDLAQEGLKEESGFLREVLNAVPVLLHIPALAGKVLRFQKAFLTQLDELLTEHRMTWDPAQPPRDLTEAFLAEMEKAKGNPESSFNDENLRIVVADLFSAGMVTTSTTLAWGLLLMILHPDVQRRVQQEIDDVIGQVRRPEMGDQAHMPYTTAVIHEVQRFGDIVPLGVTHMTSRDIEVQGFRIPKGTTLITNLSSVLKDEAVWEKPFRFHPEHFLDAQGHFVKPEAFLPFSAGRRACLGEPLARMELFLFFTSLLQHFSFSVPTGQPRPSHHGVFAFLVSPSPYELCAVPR
Description: Inhibition of CYP2D6 in human liver microsomes using dextromethorphan as substrate by LC-MS/MS analysis

physchem [10] = conditions: PBS, pH 7
Description: Aqueous solubility of the compound in PBS at pH 7

in vitro [11] = conditions: PAMPA, pH 7.4
Description: Permeability of compound at pH 7.4 by PAMPA assay

NIH3T3 [12] = assay: Antiproliferative activity against mouse NIH3T3 cells harbouring TRKC G595R mutant assessed as cell growth inhibition incubated for 3 days by CCK8 method; type: functional; conditions: NIH3T3, 72 h, time 3 day
NIH3T3 [13] = assay: Antiproliferative activity against mouse NIH3T3 cells harbouring TRKA V573M mutant assessed as cell growth inhibition incubated for 3 days by CCK8 method; type: functional; conditions: NIH3T3, 72 h, time 3 day
NIH3T3 [14] = assay: Antiproliferative activity against mouse NIH3T3 cells expressing TRKA F589L mutant assessed as inhibition of cell growth measured after 72 hrs by CCK-8 assay; type: functional
NIH3T3 [15] = assay: Antiproliferative activity against mouse NIH3T3 cells expressing TRKA G667S mutant assessed as inhibition of cell growth measured after 72 hrs by CCK-8 assay; type: functional
NIH3T3 [16] = assay: Antiproliferative activity against mouse NIH3T3 cells expressing TRKC G623R mutant assessed as inhibition of cell growth measured after 72 hrs by CCK-8 assay; type: functional
NIH3T3 [17] = assay: Antiproliferative activity against mouse NIH3T3 cells harbouring ETV6-TRKC G696A mutant incubated for 3 days by CCK8 method; type: functional; conditions: NIH3T3, 72 h, time 3 day
[18] = Kinetic solubility of compound at pH 7; type: physicochemical; conditions: buffer, read-out: Kinetic_solubility
[19] = Plasma protein binding in mouse; type: ADME, cell-free; conditions: read-out: PPB (converted)
in vitro [20] = conditions: human, human liver microsomes
Description: Half life in human liver microsome

in vitro [21] = conditions: mouse, mouse liver microsomes
Description: Half life in mouse liver microsomes

Cytochrome P450 3A4 [22] = target: T3, Cytochrome P450 3A4; remark: listed apart in the source
Description: Inhibition of CYP3A4 (unknown origin)

Cytochrome P450 2D6 [23] = target: T4, Cytochrome P450 2D6; remark: listed apart in the source
Description: Inhibition of CYP2D6 (unknown origin)

NIH3T3 [24] = assay: Antiproliferative activity against mouse NIH3T3 cells expressing wild type TRKC […] assessed as inhibition of cell growth measured after 72 hrs by CCK-8 assay; type: functional
NIH3T3 [25] = assay: cells; conditions: Mus musculus
Description: Antiproliferative activity against mouse NIH3T3 cells transfected with wild type TRKA assessed as cell growth inhibition

BaF3 [26] = assay: cells; conditions: Mus musculus, BaF3, 72 h
Description: Antiproliferative activity against mouse BaF3 cells harbouring TRKA G595R mutant assessed as cell growth inhibition incubated for 3 days by CCK8 method

BaF3 [27] = assay: cells; conditions: Mus musculus, BaF3, 72 h; remark: listed apart in the source
Description: Antiproliferative activity against mouse BaF3 cells harbouring wild type TRKC assessed as cell growth inhibition incubated for 3 days by CCK8 method

BaF3 [28] = assay: cells; conditions: Mus musculus, BaF3, 72 h; remark: listed apart in the source
BaF3 [29] = assay: cells; conditions: Mus musculus, BaF3, 72 h; remark: listed apart in the source
Description: Antiproliferative activity against mouse BaF3 cells harbouring ETV6-TRKC G623E mutant incubated for 3 days by CCK8 method

in vitro [30] = conditions: human, human liver microsomes; remark: listed apart in the source
Description: Clearance in human liver microsomes

physchem [31] = conditions: octanol/water
Description: Lipophilicity, logD of the compound

[32] = target: ALK tyrosine kinase receptor (Homo sapiens, UniProt Q9UM73)
Description: Binding affinity to ALK (unknown origin) assessed as inhibition of constant

[33] = target: ALK tyrosine kinase receptor (Homo sapiens, UniProt Q9UM73, L1196M)
Description: Binding affinity to ALK L1196M mutant (unknown origin) assessed as inhibition constant

Compound `COc1ccc2cc1COC/C=C/COCc1cc(ccc1OCCN1CCCC1)Nc1nccc-2n1` has an IC50 [1] of 890 nM, an IC50 [2] greater than 10000 nM and an IC50 [3] of 180 nM. The GI50 (BaF3 [4]) was 100 nM, the IC50 [5] was greater than 10000 nM and the IC50 [6] was 19 nM. For the same compound, the IC50 [7] was 92 nM, the IC50 (Cytochrome P450 3A4 [8]) was greater than 10000 nM and the IC50 (Cytochrome P450 2D6 [9]) was 10000 nM. The solubility (physchem [10]) was 60.8 µg/mL (≈ 121 µM) and the Papp (in vitro [11]) was 10.1 ×10⁻⁶ cm/s.

`C[C@@H]1CCc2ncc(F)cc2[C@H]2CCCN2c2ccn3ncc(c3n2)C(=O)N1` [SELITRECTINIB] showed a GI50 (NIH3T3 [12]) of 7 nM, a GI50 (NIH3T3 [13]) of 29 nM and a GI50 (NIH3T3 [14]) of 9 nM. For the same compound, the GI50 (NIH3T3 [15]) was 25 nM, the GI50 (NIH3T3 [16]) was 45.5 nM and the GI50 (NIH3T3 [17]) was 17.5 nM.

Work on `C1=C2COC/C=C/COCc3cc(ccc3OCCN3CCCC3)Nc3nccc(n3)C(=C1)O2` [CT-1578] yielded a solubility kinetic [18] greater than 250 µg/mL, a fraction unbound [19] of 0.127 and a half-life (in vitro [20]) greater than 60 min. The half-life (in vitro [21]) was 18 min.

With `COc1ccc2cc1COC/C=C/COCc1cccc(c1)-c1ccnc(n1)N2` the IC50 [1] was 1200 nM, the IC50 [2] was 860 nM and the IC50 [3] was 210 nM. It also gave an IC50 [5] of 1900 nM.

With `CN(C)CCN(C)c1ccc2cc1COC/C=C/COCc1cccc(c1)-c1ccnc(n1)N2` the IC50 [2] was 88 nM, the IC50 [3] was 71 nM and the IC50 [5] was 3600 nM. For the same compound, the IC50 [6] was 77 nM and the IC50 [7] was 31 nM.

In the case of `C1=N/C2=N/c3ccc(OCCN4CCCC4)c(c3)COC/C=C/COCc3cccc(c3)C(=C1)N2` [PACRITINIB], the solubility kinetic [18] is reported as greater than 150 µg/mL, the IC50 [2] is reported as greater than 3900 nM and the GI50 (BaF3 [4]) is reported as 160 nM. The fraction unbound [19] was 0.006, the IC50 (Cytochrome P450 3A4 [8]) was greater than 5000 nM and the IC50 (Cytochrome P450 2D6 [9]) was 5000 nM. The IC50 (Cytochrome P450 3A4 [22]) was greater than 5000 nM, the IC50 (Cytochrome P450 2D6 [23]) was greater than 5000 nM and the solubility (physchem [10]) was greater than 150 µg/mL. It also gave a half-life (in vitro [20]) greater than 60 min and a half-life (in vitro [21]) of 22 min.

Work on `O=C(Nc1cnn2ccc(N3CCC[C@@H]3c3cc(F)ccc3F)nc12)N1CC[C@H](O)C1` [LAROTRECTINIB] yielded a GI50 (NIH3T3 [13]) of 1020 nM, a GI50 (NIH3T3 [15]) of 70 nM and a GI50 (NIH3T3 [24]) of 18.8 nM. The GI50 (NIH3T3 [16]) was greater than 10000 nM, the GI50 (NIH3T3 [17]) was 172 nM and the GI50 (NIH3T3 [25]) was 5 nM. The GI50 (BaF3 [26]) was 1020 nM, the GI50 (BaF3 [27]) was 10.2 nM and the GI50 (BaF3 [28]) was 3290 nM. It also gave a GI50 (BaF3 [29]) of 742 nM.

For `OCCN1CCN(c2ccc3cc2COC/C=C/COCc2cccc(c2)-c2ccnc(n2)N3)CC1`, the IC50 [1] was 2500 nM, the IC50 [2] was 3700 nM and the IC50 [3] was 160 nM. For the same compound, the IC50 [5] was 3100 nM, the IC50 [6] was 84 nM and the IC50 [7] was 70 nM.

With `Cc1nn(C)c2c1-c1cnc(N)c(c1)O[C@H](C)c1cc(F)ccc1C(=O)N(C)C2` the microsomal CLint (in vitro [30]) was 8.6 µL/min/mg.

In the case of `CNC(=O)c1ccc(F)cc1[C@@H](C)Oc1cc(-c2cn(C)nc2C)cnc1N`, the logD (physchem [31]) is reported as 3.7 and the microsomal CLint (in vitro [30]) is reported as 28 µL/min/mg.

`CNC(=O)c1ccc(F)cc1[C@@H](C)Oc1nc(-c2cccnc2OC)cnc1N` showed a microsomal CLint (in vitro [30]) of 76 µL/min/mg.

`C[C@H]1Oc2cc(cnc2N)-c2c(nn(C)c2C#N)CN(C)C(=O)c2ccc(F)cc21` [LORLATINIB] showed a microsomal CLint (in vitro [30]) of less than 8 µL/min/mg.

`C[C@@H]1Oc2cc(cnc2N)-c2c(C#N)nn(C)c2CCCOc2ccc(F)cc21` gave a Ki [32] of less than 0.1 nM, a Ki [33] of 0.62 nM and a logD (physchem [31]) of 3.8.

With `COc1ccc(F)cc1[C@@H](C)Oc1cc(-c2cnnn2C)cnc1N` the microsomal CLint (in vitro [30]) was 25 µL/min/mg.

`Cc1cnc2nc1-c1cccc(c1)COC/C=C/COCc1cc(ccc1OCCN1CCCC1)N2` gave an IC50 [1] of 89 nM, an IC50 [3] of 57 nM and a GI50 (BaF3 [4]) of 180 nM. For the same compound, the IC50 [5] was 1000 nM, the IC50 [6] was 7 nM and the IC50 [7] was 19 nM.

Work on `CN1C/C=C/CCOc2cccc(c2)-c2ccnc(n2)Nc2cccc(c2)C1` [ZOTIRACICLIB] yielded a solubility kinetic [18] of 71.8 µg/mL (≈ 193 µM), a fraction unbound [19] of 0.006 and an IC50 (Cytochrome P450 3A4 [22]) greater than 25000 nM. The half-life (in vitro [21]) was 12 min.
